# From patent EP0793496B1, “USE OF HALOGENATED beta-[…] MODEL […] PRODUCE NEURODEGENERATIVE DISORDERS” (priority 1994, dated 1996)
# How the values were obtained:
# [1] = system: Tyrosinhydroxylase-immunoreaktive Neuronen (TH-IR); test: Primary neuron cell culture: number and morphology of TH-IR neurons after 24 h; assay type: cell-based; conditions: for Zahl der TH-IR Zellen/ Kulturschale: added on culture day 9, mean ± S.D.
# Text: (§1) In der Zellkultur zeigen 1-Trichlormethyl-β-carboline neurotoxische Eigenschaften, die mit denen von MPP^+ bzw. MPTP, den bisher bestuntersuchten dopaminergen Neurotoxinen, vergleichbar sind. Das neurotoxische Potential der chlorierten β-Carboline wurde daher mit Methoden untersucht, die sich beim Studium der Wirkung von MPTP und seiner Analoga bewährt haben (Koutsilieri et al., 1993; Michel et al., 1990; Sanchez-Ramos et al., 1988) Deutliche degenerative Veränderungen sind in vitro im Akutversuch bei einer Einwirkungszeit von 24 Stunden ab einer Konzentration von 10 - 100 µM feststellbar. Die Substanzen führen zum Zelltod dopaminerger Primärzellen aus dem Mesencephalon - Zellen, die den bei Morbus Parkinson betroffenen Neuronen des Menschen entsprechen. Dem Zelltod dieser immunhistochemisch eindeutig charakterisierten Neuronen (Antikörper auf Tyrosinhydroxylase) gehen morphologische Veränderungen der Zellen voraus. Dabei nimmt die Gesamt-Zelloberfläche ab, die Dendriten und Axone, (zuerst die sekundären und dann die primären Zellfortsätze) gehen verloren. Diese histologischen Befunde (vgl. auch Tabelle 2) wurden durch bildgebende Verfahren erhärtet und quantifiziert. Die 1-Trichlormethyl-β-carboline zeigen auch toxische Eigenschaften in Gliazellkulturen, wie durch histologische Befunde nachgewiesen werden konnte. Für die Gruppe der 1-Trichlormethyl-β-carboline läßt sich eine Beeinflussung der synaptischen Transmitterkonzentration erwarten, wie an Versuchen mit der Grundstruktur TaClo nachgewiesen werden konnte, deren Zusatz konzentrationsabhängig (IC50 50 µM) zu einer Freisetzung von Dopamin aus den Zellkulturen führt. Dies wurde durch Dopaminbestimmung in den Kulturen mit Hilfe der Hochdruckflüssigkeitschromatographie und elektrochemischer Detektion nachgewiesen. Der Einsatz von ^3H-markiertem Dopamin für Aufnahmestudien weist eine Interaktion der 1-Trichlormethyl-β-carboline mit den Dopaminaufnahmestellen in Zellkulturen nach, die eine wichtige Voraussetzung für die Aufnahme dieser Substanzen in das dopaminerge Neuron und die Entfaltung der neurotoxischen Wirkung darstellen (IC50 für TaClo 100 µM) (vgl. Tabelle 2).
# [2] = system: Dopaminstoffwechsel im Striatum; test: In vivo differential pulse voltammetry of the DOPAC signal in the striatum after unilateral intranigral injection; parameters: species or system Ratte; conditions: for DOPAC-Signal im ipsilateralen Striatum: 10 µg in 2 µl intranigral, before L-DOPA
# Text: Die 1-Trichlormethyl-β-carboline TaClo und N-Me-TaClo wurden im Vergleich zu den bekannten Neurotoxinen MPTP und MPP^+, wie folgt, auf ihre neurotoxische Wirkung überprüft. Die zu untersuchenden Substanzen (TaClo, N-Me-TaClo, DDH-TaFlu, TaBro, MPTP und MPP^+) wurden unter Narkose mit einer Mikroglaskapillare stereotaktisch nach Koordinaten (A: 4,0 mm; L: 1,9 mm; V: 2,0 mm; ab Interaurallinie) von Paxinos und Watson (1982) unilateral in die rechte Substantia nigra pars compacta der Ratte (Han-Wistar, Zentralinstitut für Versuchstierzucht, Hannover, 250-300 g) injiziert. Appliziert wurde ein Volumen von 2 µl über einen Zeitraum von 15 Minuten.
# Im Striatum, dem Projektionsareal der nigralen dopaminergen Neurone, wurde 1 und/oder 3 Wochen nach Applikation der Substanzen der Transmitterstoffwechsel untersucht. Die Untersuchung des Dopaminstoffwechsels wurde dabei in beiden Striata, dem linken Striatum, Projektionsgebiet der unbehandelten linken Substantia nigra, und dem rechten Striatum, Projektionsgebiet der behandelten rechten Substantia nigra, durchgeführt. Die Messung des Dopaminstoffwechsels erfolgte mit Hilfe der in vivo differentiellen Pulsvoltametrie (DPV) mit Mikrokohlefaserelektroden, wie sie 1980 von Gonon beschrieben wurde (Gonon et al., 1980). Dabei werden die extrazellulären Spiegel an 3,4-Dihydroxyphenylessigsäure (DOPAC) erfaßt, einem Metaboliten des Transmitters Dopamin. Die Messung wurde am narkotisierten Tier durchgeführt. Die stereotaktische Implantation von 2 Elektroden (rechtes und linkes Striatum) erfolgte nach Koordinaten (A: 8,5 mm; L: ± 3,5 mm; V: 4,5 mm; ab Interaurallinie) von Paxinos und Watson (Paxinos und Watson, 1982). Die voltametrischen Messungen wurden im Abstand von 8 Minuten durchgeführt. 40 Minuten nach Beginn der Messungen applizierte man den Tieren L-DOPA (100 mg/kg i.p.), um die Restitutionsfähigkeit des Dopaminstoffwechsels durch dieses Anti-Parkinsonmittel zu überprüfen.
# dopaminerge Rezeptoren = test: Apomorphine test (Ungerstedt): locomotor activity after subchronic TaClo i.p.; assay type: in vivo, Ratte; conditions: TaClo (Hydrochlorid) 0.2 mg/kg i.p. for four weeks, then apomorphine s.c.
# Protocol: Eine durch Neurotoxine verursachte Denervation des postsynaptischen Rezeptors im dopaminergen System führt zu einer Rezeptorüberempfindlichkeit. Dadurch wird die Reaktion gegenüber verabreichten DA-Agonisten (z.B. Apomorphin) größer. Zur Überprüfung einer z.B. TaClo-bedingten Überempfindlichkeit dopaminerger Rezeptoren wird der Apomorphin-Test nach Ungerstedt (Ungerstedt et al., 1971) benutzt. Dieser läßt nach s.c. Injektion von 0.4 oder 2 mg/kg Apomorphin bei einseitiger Läsion des dopaminergen Systems im Versuchstier in den für die Entstehung des Morbus Parkinson ausschlaggebenden Basalganglien contralaterale Drehungen erkennen und nach mehr oder weniger beidseitiger Schädigung dopaminerger Strukturen bei geringem Schädigungsgrad vermehrte, bei hohem Schädigungsgrad verminderte Lokomotion im Vergleich zum Kontrollkollektiv sichtbar werden.
# Die Verhaltensbeobachtungen fanden während und nach einstündiger Adaption in Beobachtungskäfigen statt. Die Aufzeichnung einzelner spezifischer Parameter wie gelaufene Wegstrecke [DT], Zeit ambulatorischer Bewegungen [AT], Anzahl stereotyper Bewegungen [BMS] und Zeiten stereotyper Bewegungen erfolgte automatisch. […]
# [3] = system: Substantia nigra pars compacta; test: Histology of the substantia nigra pars compacta after unilateral intranigral injection (neuron count, tyrosine hydroxylase staining); assay type: in vivo, Ratte
# Text: Die ersten Untersuchungen von drei mit TaClo behandelten Ratten mit quantitativer Auswertung der Substantia nigra pars compacta zeigen, daß TaClo, in einer Konzentration von 0.03 µmol einseitig in die Substantia nigra injiziert, bereits nach einer Woche zu einer eindeutigen Reduktion der Neuronenzahl von 12% auf der läsionierten Seite führt. 6-OHDA, in einer annähernd doppelt so hohen Konzentration von 0.05 µmol injiziert, bewirkt einen 51% Abfall der Neuronenzahl.
# Nach Anfärbung der Tyrosinhydroxylase mittels Antikörpern zur Darstellung dopaminerger Neurone zeichnen sich pathologische Veränderungen ab, die nach Behandlung mit TaClo auf der läsionierten Seite zu 3 - 6% nekrotischem Gewebsanteil am Gesamtvolumen führen. Bei 6-OHDA beträgt dieser Anteil 25%.
# [4] = system: dopaminerge Primärzellen aus dem Mesencephalon; test: Dopamine content / dopamine release in the cell cultures (HPLC with electrochemical detection); assay type: cell-based; conditions: for Dopamingehalt: 24 h, mean ± S.D.
# Text: as §1, with “Der Einsatz von ^3H-markiertem Dopamin für Aufnahmestudien weist eine Interaktion der 1-Trichlormethyl-β-carboline mit den Dopaminaufnahmestellen in Zellkulturen nach, die eine wichtige Voraussetzung für die Aufnahme dieser Substanzen in das dopaminerge Neuron und die Entfaltung der neurotoxischen Wirkung darstellen (IC50 für TaClo 100 µM) (vgl. Tabelle 2).” left out
# Dopaminaufnahmestellen = Dopaminaufnahmestellen (Mus musculus, UniProt Q61327); test: 3H-dopamine uptake in cell cultures; assay type: cell-based; conditions: 24 h, mean ± S.D.
# Text: as §1, with “Der Einsatz von ^3H-markiertem Dopamin für Aufnahmestudien weist eine Interaktion der 1-Trichlormethyl-β-carboline mit den Dopaminaufnahmestellen in Zellkulturen nach, die eine wichtige Voraussetzung für die Aufnahme dieser Substanzen in das dopaminerge Neuron und die Entfaltung der neurotoxischen Wirkung darstellen (IC50 für TaClo 100 µM) (vgl. Tabelle 2).” left out
# Sequence of Dopaminaufnahmestellen (Q61327 whole entry): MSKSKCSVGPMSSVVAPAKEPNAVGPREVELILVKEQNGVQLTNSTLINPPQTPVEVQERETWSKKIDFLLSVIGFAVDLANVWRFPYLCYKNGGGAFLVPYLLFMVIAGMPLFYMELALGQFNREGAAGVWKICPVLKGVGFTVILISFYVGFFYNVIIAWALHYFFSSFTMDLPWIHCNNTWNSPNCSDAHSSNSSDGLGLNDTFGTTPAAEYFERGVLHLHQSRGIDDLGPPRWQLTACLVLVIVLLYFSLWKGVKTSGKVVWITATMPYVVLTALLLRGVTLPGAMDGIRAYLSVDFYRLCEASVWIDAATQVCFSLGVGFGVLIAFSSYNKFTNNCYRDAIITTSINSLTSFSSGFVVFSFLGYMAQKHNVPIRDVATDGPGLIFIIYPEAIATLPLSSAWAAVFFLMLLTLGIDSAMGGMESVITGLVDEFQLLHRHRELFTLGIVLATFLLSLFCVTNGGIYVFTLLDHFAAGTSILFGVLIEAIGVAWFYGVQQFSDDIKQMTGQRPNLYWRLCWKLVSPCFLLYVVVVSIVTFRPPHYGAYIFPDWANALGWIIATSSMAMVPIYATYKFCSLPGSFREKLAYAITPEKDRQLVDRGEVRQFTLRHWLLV
compound,measurement,setting,value
ClC(Cl)(Cl)C1NCCc2c1[nH]c1ccccc21 (racemic) [TaClo],Zahl der TH-IR Zellen/ Kulturschale,[1]; TaClo 10 µM,172 ± 69
same,Länge der Fortsätze,"[1]; TaClo 10 µM, mean ± S.D.",80 ± 20 µm
same,Zahl der primären Fortsätze,"[1]; TaClo 10 µM, mean ± S.D.",3.1 ± 1.1
same,Zahl der sekundären Fortsätze,"[1]; TaClo 10 µM, mean ± S.D.",2.6 ± 1.6
same,Zellfläche,"[1]; TaClo 10 µM, mean ± S.D.",180 ± 49 µm^2
same,Zahl der TH-IR Zellen/ Kulturschale,[1]; TaClo 25 µM,164 ± 67
same,Länge der Fortsätze,"[1]; TaClo 25 µM, mean ± S.D.",70 ± 20 µm
same,Zahl der primären Fortsätze,"[1]; TaClo 25 µM, mean ± S.D.",2.9 ± 1.0
same,Zellfläche,"[1]; TaClo 25 µM, mean ± S.D.",192 ± 47 µm^2
same,Zahl der TH-IR Zellen/ Kulturschale,[1]; TaClo 50 µM,128 ± 47
same,Länge der Fortsätze,"[1]; TaClo 50 µM, mean ± S.D.",70 ± 30 µm
same,Zahl der primären Fortsätze,"[1]; TaClo 50 µM, mean ± S.D.",2.6 ± 1.3
same,Zellfläche,"[1]; TaClo 50 µM, mean ± S.D.",159 ± 18 µm^2
same,Zellfläche,"[1]; TaClo 100 µM, mean ± S.D.",185 ± 43 µm^2
same,DOPAC-Signal im ipsilateralen Striatum,[2]; 1 week,signifikant geringere DOPAC-Konzentration
same,DOPAC-Signal im ipsilateralen Striatum,[2]; 3 weeks,signifikant geringere DOPAC-Konzentration
same,lokomotorische Aktivität nach Apomorphin,dopaminerge Rezeptoren,stieg nach der kleineren Dosierung signifikant an
same,Reduktion der Neuronenzahl auf der läsionierten Seite,"[3]; 0.03 µmol injected unilaterally into the substantia nigra, after one week, three rats",12%
same,nekrotischer Gewebsanteil am Gesamtvolumen auf der läsionierten Seite,"[3]; TaClo treatment (0.03 µmol), tyrosine hydroxylase antibody staining",3 - 6%
same,Dopamingehalt,[4]; TaClo 10 µM,0.7 ± 0.2 pmoles/ Kulturschale
same,Dopamingehalt,[4]; TaClo 25 µM,0.6 ± 0.2 pmoles/ Kulturschale
same,IC50,"[4]; concentration dependent, dopamine determined by HPLC with electrochemical detection, read-out: IC50 Freisetzung von Dopamin aus den Zellkulturen",50 µM
same,^3H-DA uptake,Dopaminaufnahmestellen; TaClo 10 µM,0.05 ± 0.01 pmoles/ Kulturschale
same,^3H-DA uptake,Dopaminaufnahmestellen; TaClo 25 µM,0.05 ± 0.01 pmoles/ Kulturschale
same,^3H-DA uptake,Dopaminaufnahmestellen; TaClo 50 µM,0.05 ± 0.01 pmoles/ Kulturschale
"NCCc1cc(O)c(O)cc1O [6-OHDA, 6-hydroxydopamine, reference compound]",Abfall der Neuronenzahl,[3]; 0.05 µmol injected,51%
same,nekrotischer Gewebsanteil am Gesamtvolumen,"[3]; 6-OHDA (0.05 µmol), tyrosine hydroxylase antibody staining",25%
"FC(F)(F)C1=NCCc2c1[nH]c1ccccc21 [DDH-TaFlu, 1-Trifluormethyl-3,4-didehydro-β-carbolin]",DOPAC-Signal im ipsilateralen Striatum,[2]; 1 week,stärkere Reduktion des DOPAC-Signals
"C[n+]1ccc(-c2ccccc2)cc1 [MPP^+, 1-Methyl-4-Phenylpyridinium, reference compound]",DOPAC-Signal auf der injizierten Seite,"[2]; MPP^+ 30 µg in 2 µl intranigral, 1 and 3 weeks",hochsignifikante (p < 0.01) langanhaltende Verringerung des DOPAC-Signals
same,Restitutionsfähigkeit des dopaminergen Systems durch DOPA,"[2]; MPP^+ 30 µg in 2 µl intranigral, 1 week, L-DOPA 100 mg/kg i.p.",mangelnde Restitutionsfähigkeit
"CN1CC=C(c2ccccc2)CC1 [MPTP, 1-Methyl-4-phenyl-1,2,3,6-tetrahydropyridin, reference compound]",Kompensation des Neuronenverlusts durch L-DOPA,"[2]; MPTP 174 µg in 2 µl intranigral, 1 and 3 weeks, L-DOPA 100 mg/kg i.p.",kompensieren konnte
same,DOPAC-Wert auf der läsionierten Seite vor L-DOPA,"[2]; MPTP 174 µg in 2 µl intranigral, 1 week, intact side about 20%, p < 0.05",~6%
same,Erniedrigung des DOPAC-Signals,"[2]; MPTP 174 µg in 2 µl intranigral, 3 weeks",statistisch nicht mehr signifikant
CN1CCc2c([nH]c3ccccc23)C1C(Cl)(Cl)Cl (centres unmarked) [N-Me-TaClo],DOPAC-Signal im ipsilateralen Striatum,[2]; 1 week,signifikant
same,DOPAC-Signal im ipsilateralen Striatum,[2]; 3 weeks,signifikant
